IC50 data for one compound are collected here from publication PMC9146161, “Novel Thienyl-Based Tyrosine Kinase Inhibitors for the Treatment of Hepatocellular Carcinoma” (Journal of Personalized Medicine, 2022).

Molecules are shown by their SMILES.

One may read the IC50 as the concentration at which inhibition is half-maximal. Low values mean inhibition by little substance, high ones a need for much substance.

The target in this assay is T1, VEGFR-2 (Homo sapiens, UniProt P35968).
T1 construct: gene KDR
T1 sequence (P35968 20-1356): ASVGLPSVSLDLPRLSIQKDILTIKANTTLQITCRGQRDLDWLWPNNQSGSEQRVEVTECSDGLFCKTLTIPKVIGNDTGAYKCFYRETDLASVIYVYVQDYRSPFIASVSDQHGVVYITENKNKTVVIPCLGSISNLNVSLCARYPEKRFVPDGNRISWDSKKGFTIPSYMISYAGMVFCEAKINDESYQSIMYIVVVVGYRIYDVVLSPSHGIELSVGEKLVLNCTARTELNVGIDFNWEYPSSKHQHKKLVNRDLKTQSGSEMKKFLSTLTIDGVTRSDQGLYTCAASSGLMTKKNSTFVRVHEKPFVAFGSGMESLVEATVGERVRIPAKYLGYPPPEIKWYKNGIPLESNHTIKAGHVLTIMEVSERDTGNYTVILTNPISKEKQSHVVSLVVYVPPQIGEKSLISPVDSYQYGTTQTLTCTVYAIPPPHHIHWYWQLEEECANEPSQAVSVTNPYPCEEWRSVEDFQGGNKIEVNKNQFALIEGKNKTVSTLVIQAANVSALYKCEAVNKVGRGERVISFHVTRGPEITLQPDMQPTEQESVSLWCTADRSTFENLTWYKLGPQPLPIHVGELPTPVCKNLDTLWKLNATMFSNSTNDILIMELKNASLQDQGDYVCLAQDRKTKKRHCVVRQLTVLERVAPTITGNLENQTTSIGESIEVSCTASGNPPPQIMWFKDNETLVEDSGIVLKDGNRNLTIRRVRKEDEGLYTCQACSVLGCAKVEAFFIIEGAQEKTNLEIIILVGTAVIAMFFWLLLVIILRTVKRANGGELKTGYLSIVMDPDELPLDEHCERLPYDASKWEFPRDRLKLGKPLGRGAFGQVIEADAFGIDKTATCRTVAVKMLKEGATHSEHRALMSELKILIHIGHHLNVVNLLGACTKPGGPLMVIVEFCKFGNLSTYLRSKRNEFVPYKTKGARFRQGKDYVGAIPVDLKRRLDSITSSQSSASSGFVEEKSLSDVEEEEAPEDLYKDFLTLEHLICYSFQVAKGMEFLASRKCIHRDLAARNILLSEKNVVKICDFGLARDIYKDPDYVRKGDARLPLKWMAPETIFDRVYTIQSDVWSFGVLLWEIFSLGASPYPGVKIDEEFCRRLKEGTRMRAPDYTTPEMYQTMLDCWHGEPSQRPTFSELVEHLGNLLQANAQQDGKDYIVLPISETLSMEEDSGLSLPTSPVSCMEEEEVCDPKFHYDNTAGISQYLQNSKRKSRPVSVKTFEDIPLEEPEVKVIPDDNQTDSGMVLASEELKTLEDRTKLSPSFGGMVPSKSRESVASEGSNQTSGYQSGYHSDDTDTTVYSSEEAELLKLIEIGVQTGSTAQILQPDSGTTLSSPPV
The assay can be described thus: cell-free enzymatic kinase assay (Eurofins KinaseProfiler), dose-response […]. It is filed as biochemical.

In turn, `COc1ccc(/C=C(\C#N)c2cccs2)cc1O` [Thio-Iva] registered an IC50 of 3.31 µM.
